Key:
[1] = animals given irinotecan; Goldenberg et al., 2014; cited from earlier work
[2] = weekly x 4 doses; Camptosar package insert; cited from earlier work
MDA-MB-468 TNBC tumors = assay: MDA-MB-468 TNBC xenograft; assay type: in vivo, mouse; conditions: one animal each, tumors progressed to ~0.7 cm^3 on irinotecan
COLO 205 tumors = assay: COLO 205 xenograft therapy; assay type: in vivo; conditions: for tumor volume (TV): 0.4 mg/kg, q4dx8, 28-day treatment period
Capan-1 tumors = assay: Capan-1 xenograft therapy; assay type: in vivo, mouse; conditions: for average tumor size: day 35, 0.4 mg SN-38/kg; for tumor volume (TV): day 49, 0.4 mg/kg SN-38; for tumor-free mice at end of study: day 140
Experimental: (§1) NCr female athymic nude (nu/nu) mice, 4 to 8 weeks old, and male Swiss-Webster mice, 10 weeks old, were purchased from Taconic Farms. Tolerability studies were performed in Cynomolgus monkeys (Macaca fascicularis; 2.5-4 kg male and female) by SNBL USA, Ltd. Animals were implanted subcutaneously with different human cancer cell lines. Tumor volume (TV) was determined by measurements in 2 dimensions using calipers, with volumes defined as: L×w^2/2, where L is the longest dimension of the tumor and w is the shortest. […] This dosing frequency reflected a consideration of the conjugate's serum half-life […], to allow a more continuous exposure to the ADC.
(§2) Statistics—Growth curves are shown as percent change in initial TV over time. Statistical analysis of tumor growth was based on area under the curve (AUC). Profiles of individual tumor growth were obtained through linear-curve modeling. An f-test was employed to determine equality of variance between groups before statistical analysis of growth curves. A 2-tailed t-test was used to assess statistical significance between the various treatment groups and controls, except for the saline control, where a 1-tailed t-test was used (significance at P≤0.05). Statistical comparisons of AUC were performed only up to the time that the first animal within a group was euthanized due to progression.

[3] = Irinotecan MTD and conversion in mice; assay type: in vivo, mouse
[4] = system: BxPC-3 human pancreatic tumors; assay: BxPC-3 xenograft therapy; assay type: in vivo, mouse; conditions: day 21; equivalent amounts of ADC
Experimental: as §1, §2

[5] = system: human gastric carcinoma xenograft, NCI-N87; assay: NCI-N87 gastric carcinoma xenograft, Example 17; assay type: in vivo, mouse
From the text: (§3) In Vivo Therapeutic Studies—NCr female athymic nude (nu/nu) mice, 4-8 weeks old, were purchased from Taconic Farms (Germantown, NY). NCI-N87 gastric tumor xenografts were established by harvesting cells from tissue culture and making a final cell suspension 1:1 in matrigel (BD Bioscience; San Jose, CA), with each mouse receiving a total of 1×10^7 cells s.c. in the right flank. For BxPC-3. xenografts of 1 g were harvested, and a tumor suspension made in HBSS to a concentration of 40% tumor w/v. This suspension was mixed 1:1 with matrigel for a final tumor suspension of 20% w/v. […] For IHC, tumors were allowed to grow to approximately 0.5 cm^3 before the mice were euthanized and the tumors removed, formalin-fixed and paraffin-embedded. For therapy studies, mice were randomized into treatment groups and therapy begun when tumor volumes were approximately 0.25 cm^3.
(§4) Mice were euthanized and deemed to have succumbed to disease once tumors grew to greater than 1.0 cm^3 in size. […] Time to progression (TTP) was determined as time post-therapy initiation when the tumor grew more than 20% in size from its nadir.
Survival studies were analyzed using Kaplan-Meier plots (log-rank analysis), using the Prism GraphPad Software (v4.03) software package (Advanced Graphics Software, Inc., Encinitas, CA).

BxPC-3 [6] = assay: dsDNA breaks, γH2AX induction in BxPC-3; assay type: cell-based, human; conditions: BxPC-3, 20 μg/ml for 30 min
Experimental: Assessment of Double-Stranded DNA Breaks In Vitro—For drug activity testing, BxPC-3 cells were seeded in 6-well plates at 5×10^5 cells/well and held at 37° C. overnight. […] The following morning, cells were trypsinized briefly, spun down, stained with Fixable Viability Stain 450 (BD Biosciences, San Jose, CA), washed with 1% BSA-PBS, and then fixed in 4% formalin for 15 min, washed again and permeabilized in 0.15% Triton-X100 in PBS for another 15 min. After washing twice with 1% BSA-PBS, cells were incubated with mouse anti-γH2AX-AF488 (EMD Millipore Corporation, Temecula, CA) for 45 min at 4° C. The signal intensity of γH2AX was measured by flow cytometry using a BD FACSCanto (BD Biosciences, San Jose, CA).

[7] = system: NCI-N87 human gastric tumor xenografts; assay: Dose schedules and chronic dosing, NCI-N87 xenograft; assay type: in vivo, mouse; conditions: four cycles
From the text: as §3, §4
A similar dose schedule experiment was performed in mice bearing NCI-N87 human gastric tumor xenografts (not shown). […] Likewise, in terms of overall survival, while all three dose schedules provided a significant survival benefit when compared to untreated control (P<0.0001), there were no differences between any of these three different schedules.
In all, four treatment cycles were administered to the animals.

Calu-3 = Calu-3 xenograft therapy; assay type: in vivo, mouse; conditions: for tumor volume (TV): 0.04 mg SN-38/kg every 4 days x 4; for outcome: 0.4 mg/kg SN-38
BxPC-3 [8] = assay: ADCC activity of hRS7-ADC conjugates; assay type: cell-based, human; conditions: 33.3 nM; PBMC effector to target ratio 100:1
From the text: PBMCs were purified from blood purchased from the Blood Center of New Jersey. A Trop-2-positive human pancreatic adenocarcinoma cell line (BxPC-3) was used as the target cell line with an effector to target ratio of 100:1.

[9] = mouse, in vivo
From the text: Pharmacokinetics—Naive female NCr nude (nu/nu) mice, 8-10 weeks old, were purchased from Taconic Farms (Germantown, NY). […] ELISA was utilized to determine serum concentrations of total hRS7 IgG by competing for the binding to an anti-hRS7 IgG idiotype antibody with a horseradish peroxidase conjugate of hRS7. […] Pharmacokinetic (PK) parameters were computed by noncompartmental analysis using Phoenix WinNonlin software (version 6.3; Pharsight Corp., Mountainview, CA).

Trop-2 = target: T1, Trop-2 (Homo sapiens, UniProt P09758); assay: In vitro cell binding, multiple cell lines; set-up: endogenous in cells; host or cells: human cancer cell lines (ATCC)
T1 sequence (P09758 27-323): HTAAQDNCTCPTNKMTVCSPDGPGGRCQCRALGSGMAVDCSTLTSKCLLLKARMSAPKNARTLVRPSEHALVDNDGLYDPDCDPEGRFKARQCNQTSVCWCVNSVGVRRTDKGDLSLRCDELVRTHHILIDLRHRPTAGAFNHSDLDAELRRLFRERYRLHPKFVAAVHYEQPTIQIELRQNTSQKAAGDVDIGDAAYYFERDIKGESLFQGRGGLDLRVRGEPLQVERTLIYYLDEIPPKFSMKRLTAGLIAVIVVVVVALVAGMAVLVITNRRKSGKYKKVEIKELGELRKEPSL
Experimental: In Vitro Cell Binding—LumiGLO Chemiluminescent Substrate System (KPL, Gaithersberg, MD) was used to detect antibody binding to cells. Briefly, cells were plated into a 96 black-well, flat-clear-bottom plate overnight. Antibodies were serially diluted 1:2 and added in triplicate, yielding a concentration range from 0.03 to 66.7 nM. After incubating for 1 h at 4° C., the media was removed and the cells washed with fresh cold media followed by the addition of a 1:20,000 dilution of goat-antihuman horseradish peroxidase-conjugated secondary antibody (Jackson Immunoresearch, West Grove, PA) for 1 h at 4° C. The plates were again washed before the addition of the LumiGLO reagent. Plates were read for luminescence using an Envision plate reader (Perkin Elmer, Boston MA). Data were analyzed by non-linear regression to determine the equilibrium dissociation constant (KD). Statistical comparisons of KD-values were made with Prism GraphPad Software (v4.03) (Advanced Graphics Software, Inc.; Encinitas, CA) using an F-Test on the best-fit curves for the data. Significance was set at P<0.05.

[10] = in vivo; cited from earlier work
Capan-1 = assay: Combination 90Y-hPAM4 RAIT + ADC, Capan-1 xenograft; assay type: in vivo, mouse
From the text: Objective responses occurred in most animals, but they were more robust in both of the combination groups as compared to each agent given alone. […] These studies provide the first evidence that combined radioimmunotherapy and ADC enhances efficacy at safe doses.

pancreatic cancer = assay: PAM4 clinical trial, 90Y-hPAM4 with gemcitabine; assay type: in vivo, human; conditions: 22 CT-assessable patients
Experimental: In the ongoing PAM4 clinical trials, a four week clinical treatment cycle is performed. In week 1, subjects are administered a dose of ^111In-hPAM4, followed at least 2 days later by gemcitabine dose. In weeks 2, 3 and 4, subjects are administered a ^90Y-hPAM4 dose, followed at least 2 days later by gemcitabine (200 mg/m^2). Escalation started at 3×6.5 mCi/m^2. The maximum tolerated dose in front-line pancreatic cancer patients was 3×15 mCi/m^2 (hematologic toxicity is dose-limiting).

[11] = 0.2 mg/kg SN-38 twice weekly x 4 weeks

For `CCc1c2c(nc3ccc(OC(=O)N4CCC(N5CCCCC5)CC4)cc13)-c1cc3c(c(=O)n1C2)COC(=O)[C@]3(O)CC` [irinotecan, 7-ethyl-10-[4-(1-piperidino)-1-piperidino]carbonyloxycamptothecin], the “share of total serum SN-38 that is glucuronidated” value [1] is listed as over 50%, the “grades 3 and 4 late diarrhea” value [2] is listed as 31% and the “decrease in tumor size after re-treatment” value (MDA-MB-468 TNBC tumors) is listed as 23%. The “efficacy of irinotecan at MTD” value (COLO 205 tumors; 24 mg SN-38/kg, q2dx5) was “as effective as hRS7-CL2-SN-38”, the average tumor size (Capan-1 tumors) was 1.78±0.62 cm^3 and the MTD ([3]; IV, single injection) was 40 mg/kg. For the same molecule, the MTD ([3]; q2dx5) was 24 mg SN-38/kg.

With hA20-CL2-SN-38 [reference compound] the “tumor volume (TV)” value (COLO 205 tumors) was 1.19±0.59 cm^3 and the “tumor volume (TV)” value (Capan-1 tumors) was 0.80±0.68 cm^3.

In the case of hA20-CL2A-SN-38 [reference compound], the “tumor volume (TV)” value [4] is reported as 1.05±0.73 cm^3, the “median survival time (MST)” value ([5]; 14 days for saline control) is reported as 24 days and the “mean time to progression (TTP)” value ([5]; mouse, in vivo) is reported as 4.1 ± 2.0 days. The “Percent Positive, γH2AX” value (BxPC-3 [6]; untreated 18.8 ± 6.3, listed as hA20-SN-38) was 12.7 ± 2.4%, the “Mean Fluorescence Intensity, γH2AX” value (BxPC-3 [6]; untreated 2516 ± 191) was 2246 ± 58 and the “tumor-free mice at end of study” value (Capan-1 tumors; [11]) was 20%. The TTP ([7]; 0.5 mg once a week for two weeks, one week off) was 4.7 ± 2.2 days and the median survival ([7]; chronic dosing) was 21 days.

With hLL2-CL2-SN-38 [reference compound] the “tumor volume (TV)” value (Calu-3) was 0.80±0.91 cm^3 and the outcome (Calu-3) was “tumors regrew”.

In the case of hRS7-CL2-SN-38, the “tumor growth vs untreated and hA20-CL2A-SN-38” value (COLO 205 tumors; 0.4 mg/kg SN-38 twice weekly x 4 weeks) is reported as “significantly inhibited tumor growth”, the “tumor volume (TV)” value (COLO 205 tumors) is reported as 0.16±0.09 cm^3 and the “tumor growth vs untreated and hA20-CL2A-SN-38” value (Capan-1 tumors; [11]) is reported as “significantly inhibited tumor growth”. The average tumor size (Capan-1 tumors) was 0.04±0.05 cm^3, the “tumor volume (TV)” value (Capan-1 tumors) was 0.17±0.18 cm^3 and the “tumor-free mice at end of study” value (Capan-1 tumors; [11]) was 40%. For the same molecule, the “tumor volume (TV)” value (Calu-3) was 0.14±0.22 cm^3 and the outcome (Calu-3) was “remained tumor-free until the end of the study on day 147”.

For hRS7-NEM [reference compound], the “specific lysis (ADCC)” value (BxPC-3 [8]) was “no difference between hRS7-NEM and sacituzumab govitecan”, the “half-life, Cmax, AUC, clearance, MRT vs parental hRS7” value [9] was “no significant differences” and the KD (Trop-2) was “sub-nanomolar range”.

With hRS7-Pro-2-PDox the “specific lysis (ADCC)” value (BxPC-3 [8]) was “not significantly different”.

In the case of veltuzumab, the immunogenicity in subjects [10] is given as “less immunogenic in subjects than rituximab”.

B1: ^90Y-hPAM4 (conjugate, chains of the INN, looked up)
VH: QVQLQQSGAEVKKPGASVKVSCEASGYTFPSYVLHWVKQAPGQGLEWIGYINPYNDGTQYNEKFKGKATLTRDTSINTAYMELSRLRSDDTAVYYCARGFGGSYGFAYWGQGTLVTVSS
VL: DIQLTQSPSSLSASVGDRVTMTCSASSSVSSSYLYWYQQKPGKAPKLWIYSTSNLASGVPARFSGSGSGTDFTLTISSLQPEDSASYFCHQWNRYPYTFGGGTRLEIK
modifications: 90Y radiolabel
In the case of B1, the “tumor-free mice after 20 weeks” value (Capan-1; 75 μCi 90Y-hPAM4 level, ADC alone, or their combination, n=10) is reported as 1 of 10, the tumor-free animals (Capan-1; 130 μCi 90Y-hPAM4 level, n=10) is reported as 5 of 10 and the “disease control rate (CR+PR+SD)” value (pancreatic cancer) is reported as 68%. For the same molecule, the partial responses (pancreatic cancer) was 23% and the “stabilization as best response” value (pancreatic cancer) was 45%.

B2: hPAM4 (antibody, chains of the INN, looked up, V domains shown)
VH: B1 VH
VL: B1 VL
With B2 the “anti-tumor activity of unconjugated antibodies” value (Capan-1; given alone) was “Neither unconjugated hPAM4 nor hRS7 antibodies had anti-tumor activity”.
